Assay results taken from US12077503B2, “Substituted cyclic amides and their use as herbicides” (FMC CORPORATION, priority 2015, dated 2024).

Tests used:
Assay type in all cases: in vivo
[1] = test system: giant foxtail (Setaria faberi); assay: Test G Pre-Emergence Protocol; details: Setaria faberi, pre-emergence, 312 h, evaluated after 13 days; for pest or weed control at 15.625 g/ha: 15.625 g ai/ha; for pest or weed control at 15.625 g/ha / pest or weed control at 250 g/ha: read-out: Foxtail, Giant damage rating (100=total damage to plant; 0=no damage to plant); for pest or weed control at 62.5 g/ha: 62.5 g ai/ha, 100=total damage to plant, 0=no damage to plant, read-out: plant damage rating, Foxtail, Giant; for pest or weed control at 250 g/ha: 250 g ai/ha
How it was run: (§1)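 Glasshouse pre-emergence test: soil-sown seeds, sprayed after 1 d at 15.625, 62.5 or 250 g/ha. Conditions 24/16° C day/night, 14 h light, 65% humidity, watering twice daily. Rating 13 d post-spray (100 = total damage).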

[2] = test system: corn (Zea mays); assay: Test G Pre-Emergence Protocol; details: Zea mays, pre-emergence, 312 h, evaluated after 13 days; for plant injury at 15.625 g/ha: 15.625 g ai/ha; for plant injury at 15.625 g/ha / plant injury at 250 g/ha: read-out: Corn damage rating (100=total damage to plant; 0=no damage to plant); for plant injury at 62.5 g/ha: 62.5 g ai/ha, 100=total damage to plant, 0=no damage to plant, read-out: plant damage rating, Corn; for plant injury at 250 g/ha: 250 g ai/ha
How it was run: as §1

[3] = test system: barnyardgrass (Echinochloa crus-galli); assay: Test G Pre-Emergence Protocol; details: Echinochloa crus-galli, pre-emergence, 312 h, evaluated after 13 days; for pest or weed control at 15.625 g/ha: 15.625 g ai/ha, read-out: Barnyard grass damage rating (100=total damage to plant; 0=no damage to plant); for pest or weed control at 62.5 g/ha: 62.5 g ai/ha, 100=total damage to plant, 0=no damage to plant, read-out: plant damage rating, Barnyardgrass; for pest or weed control at 250 g/ha: 250 g ai/ha, read-out: Barnyardgrass damage rating (100=total damage to plant; 0=no damage to plant)
How it was run: as §1

[4] = test system: ivy-leaved morning glory (Ipomoea hederacea); assay: Test G Pre-Emergence Protocol; details: Ipomoea, pre-emergence, 312 h, evaluated after 13 days; for pest or weed control at 15.625 g/ha: 15.625 g ai/ha, read-out: Morning-glory, Ivy-leaved damage rating (100=total damage to plant; 0=no damage to plant); for pest or weed control at 62.5 g/ha: 62.5 g ai/ha, 100=total damage to plant, 0=no damage to plant, read-out: plant damage rating, Morningglory, Ivy-leaved; for pest or weed control at 250 g/ha: 250 g ai/ha, read-out: Morningglory, Ivy-leaved damage rating (100=total damage to plant; 0=no damage to plant)
How it was run: as §1

[5] = test system: redroot pigweed (Amaranthus retroflexus); assay: Test G Pre-Emergence Protocol; details: Amaranthus retroflexus, pre-emergence, 312 h, evaluated after 13 days; for pest or weed control at 15.625 g/ha: 15.625 g ai/ha; for pest or weed control at 15.625 g/ha / pest or weed control at 250 g/ha: read-out: Pigweed, Redroot damage rating (100=total damage to plant; 0=no damage to plant); for pest or weed control at 62.5 g/ha: 62.5 g ai/ha, 100=total damage to plant, 0=no damage to plant, read-out: plant damage rating, Pigweed, Redroot; for pest or weed control at 250 g/ha: 250 g ai/ha
How it was run: as §1

[6] = test system: velvetleaf (Abutilon theophrasti); assay: Test G Pre-Emergence Protocol; details: Abutilon theophrasti, pre-emergence, 312 h, evaluated after 13 days; for pest or weed control at 15.625 g/ha: 15.625 g ai/ha; for pest or weed control at 15.625 g/ha / pest or weed control at 250 g/ha: read-out: Velvetleaf damage rating (100=total damage to plant; 0=no damage to plant); for pest or weed control at 62.5 g/ha: 62.5 g ai/ha, 100=total damage to plant, 0=no damage to plant, read-out: plant damage rating, Velvetleaf; for pest or weed control at 250 g/ha: 250 g ai/ha
How it was run: as §1

[7] = test system: giant foxtail (Setaria faberi); assay: Test G Post-Emergence Protocol; details: Setaria faberi, post-emergence, 312 h; for pest or weed control at 15.625 g/ha: 15.625 g ai/ha, evaluated after 13 days (100=total damage to plant; 0=no damage to plant), read-out: Foxtail, Giant damage rating; for pest or weed control at 62.5 g/ha: 62.5 g ai/ha, read-out: Foxtail, Giant damage rating (100=total damage to plant; 0=no damage to plant); for pest or weed control at 62.5 g/ha / pest or weed control at 250 g/ha: evaluated after 13 days; for pest or weed control at 250 g/ha: 250 g ai/ha, read-out: damage to plant, Foxtail, Giant (100=total damage to plant; 0=no damage to plant)
How it was run: (§2)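 Foliar application was made 8 days after sowing, using an aqueous spray of the active in acetone/water (50:50) with 0.5% Tween 20, at doses of 15.625, 62.5 or 250 g/ha. Injury was assessed 13 days later, where 100 meant the plant was fully damaged.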

[8] = test system: corn (Zea mays); assay: Test G Post-Emergence Protocol; details: Zea mays, post-emergence, 312 h; for plant injury at 15.625 g/ha: 15.625 g ai/ha, evaluated after 13 days (100=total damage to plant; 0=no damage to plant), read-out: Corn damage rating; for plant injury at 62.5 g/ha: 62.5 g ai/ha, read-out: Corn damage rating (100=total damage to plant; 0=no damage to plant); for plant injury at 62.5 g/ha / plant injury at 250 g/ha: evaluated after 13 days; for plant injury at 250 g/ha: 250 g ai/ha, read-out: damage to plant, Corn (100=total damage to plant; 0=no damage to plant)
How it was run: as §2

[9] = test system: barnyardgrass (Echinochloa crus-galli); assay: Test G Post-Emergence Protocol; details: Echinochloa crus-galli, post-emergence, 312 h; for pest or weed control at 15.625 g/ha: 15.625 g ai/ha, evaluated after 13 days (100=total damage to plant; 0=no damage to plant), read-out: Barnyardgrass damage rating; for pest or weed control at 62.5 g/ha: 62.5 g ai/ha, read-out: Barnyardgrass damage rating (100=total damage to plant; 0=no damage to plant); for pest or weed control at 62.5 g/ha / pest or weed control at 250 g/ha: evaluated after 13 days; for pest or weed control at 250 g/ha: 250 g ai/ha, read-out: damage to plant, Barnyardgrass (100=total damage to plant; 0=no damage to plant)
How it was run: as §2

[10] = test system: ivy-leaved morning glory (Ipomoea hederacea); assay: Test G Post-Emergence Protocol; details: Ipomoea, post-emergence, 312 h; for pest or weed control at 15.625 g/ha: 15.625 g ai/ha, evaluated after 13 days (100=total damage to plant; 0=no damage to plant), read-out: Morningglory, Ivy-leaved damage rating; for pest or weed control at 62.5 g/ha: 62.5 g ai/ha, read-out: Morningglory, Ivy-leaved damage rating (100=total damage to plant; 0=no damage to plant); for pest or weed control at 62.5 g/ha / pest or weed control at 250 g/ha: evaluated after 13 days; for pest or weed control at 250 g/ha: 250 g ai/ha, read-out: damage to plant, Morningglory, Ivy-leaved (100=total damage to plant; 0=no damage to plant)
How it was run: as §2

[11] = test system: redroot pigweed (Amaranthus retroflexus); assay: Test G Post-Emergence Protocol; details: Amaranthus retroflexus, post-emergence, 312 h; for pest or weed control at 15.625 g/ha: 15.625 g ai/ha, evaluated after 13 days (100=total damage to plant; 0=no damage to plant), read-out: Pigweed, Redroot damage rating; for pest or weed control at 62.5 g/ha: 62.5 g ai/ha, read-out: Pigweed, Redroot damage rating (100=total damage to plant; 0=no damage to plant); for pest or weed control at 62.5 g/ha / pest or weed control at 250 g/ha: evaluated after 13 days; for pest or weed control at 250 g/ha: 250 g ai/ha, read-out: damage to plant, Pigweed, Redroot (100=total damage to plant; 0=no damage to plant)
How it was run: as §2

[12] = test system: velvetleaf (Abutilon theophrasti); assay: Test G Post-Emergence Protocol; details: Abutilon theophrasti, post-emergence, 312 h; for pest or weed control at 15.625 g/ha: 15.625 g ai/ha, evaluated after 13 days (100=total damage to plant; 0=no damage to plant), read-out: Velvetleaf damage rating; for pest or weed control at 62.5 g/ha: 62.5 g ai/ha, read-out: Velvetleaf damage rating (100=total damage to plant; 0=no damage to plant); for pest or weed control at 62.5 g/ha / pest or weed control at 250 g/ha: evaluated after 13 days; for pest or weed control at 250 g/ha: 250 g ai/ha, read-out: damage to plant, Velvetleaf (100=total damage to plant; 0=no damage to plant)
How it was run: as §2

SMILES | pest or weed control at 15.625 g/ha [1] [%] | pest or weed control at 62.5 g/ha [1] [%] | pest or weed control at 250 g/ha [1] [%] | plant injury at 15.625 g/ha [2] [%] | plant injury at 62.5 g/ha [2] [%] | plant injury at 250 g/ha [2] [%] | pest or weed control at 15.625 g/ha [3] [%] | pest or weed control at 62.5 g/ha [3] [%] | pest or weed control at 250 g/ha [3] [%] | pest or weed control at 15.625 g/ha [4] [%] | pest or weed control at 62.5 g/ha [4] [%] | pest or weed control at 250 g/ha [4] [%] | pest or weed control at 15.625 g/ha [5] [%] | pest or weed control at 62.5 g/ha [5] [%] | pest or weed control at 250 g/ha [5] [%] | pest or weed control at 15.625 g/ha [6] [%] | pest or weed control at 62.5 g/ha [6] [%] | pest or weed control at 250 g/ha [6] [%] | pest or weed control at 15.625 g/ha [7] [%] | pest or weed control at 62.5 g/ha [7] [%] | also measured
Cc1c(Cl)ncnc1NC(=O)[C@@H]1C(=O)N(C)C[C@H]1c1ccc(C(F)(F)F)cc1 (racemic) [Compound 1581] | 0 | 0 | 0 | 0 | 0 | 0 | 0 | 0 | 0 | 0 | 0 | 0 | 0 | 0 | 0 | 0 | 0 | 0 | 0 | 0 | pest or weed control at 250 g/ha [7]: 0%; plant injury at 15.625 g/ha [8]: 0%; plant injury at 62.5 g/ha [8]: 0%; plant injury at 250 g/ha [8]: 0%; pest or weed control at 15.625 g/ha [9]: 0%; pest or weed control at 62.5 g/ha [9]: 0%; pest or weed control at 250 g/ha [9]: 10%; pest or weed control at 15.625 g/ha [10]: 0%; pest or weed control at 62.5 g/ha [10]: 0%; pest or weed control at 250 g/ha [10]: 0%; pest or weed control at 15.625 g/ha [11]: 0%; pest or weed control at 62.5 g/ha [11]: 0%; pest or weed control at 250 g/ha [11]: 0%; pest or weed control at 15.625 g/ha [12]: 0%; pest or weed control at 62.5 g/ha [12]: 0%; pest or weed control at 250 g/ha [12]: 0%
CN1C[C@@H](c2ccc(C(F)(F)F)nc2)[C@H](C(=O)Nc2ccccc2S(C)(=O)=O)C1=O (racemic) [Compound 1586] | 0 | 20 | 70 | 0 | 10 | 30 | 0 | 0 | 90 | 0 | 0 | 10 | 0 | 40 | 60 | 0 | 0 | 30 | 0 | 0 | pest or weed control at 250 g/ha [7]: 70%; plant injury at 15.625 g/ha [8]: 0%; plant injury at 62.5 g/ha [8]: 0%; plant injury at 250 g/ha [8]: 30%; pest or weed control at 15.625 g/ha [9]: 0%; pest or weed control at 62.5 g/ha [9]: 0%; pest or weed control at 250 g/ha [9]: 50%; pest or weed control at 15.625 g/ha [10]: 0%; pest or weed control at 62.5 g/ha [10]: 0%; pest or weed control at 250 g/ha [10]: 40%; pest or weed control at 15.625 g/ha [11]: 0%; pest or weed control at 62.5 g/ha [11]: 0%; pest or weed control at 250 g/ha [11]: 40%; pest or weed control at 15.625 g/ha [12]: 0%; pest or weed control at 62.5 g/ha [12]: 10%; pest or weed control at 250 g/ha [12]: 10%
Cc1ccc(NC(=O)[C@@H]2C(=O)N(C)C[C@H]2c2ccc(C(F)(F)F)cc2)c(Cl)c1 (racemic) [Compound 1590] | 0 | 50 | 80 | 0 | 0 | 0 | 0 | 0 | 60 | 0 | 0 | 0 | 0 | 0 | 0 | 0 | 0 | 0 | 0 | 70 | pest or weed control at 250 g/ha [7]: 80%; plant injury at 15.625 g/ha [8]: 0%; plant injury at 62.5 g/ha [8]: 0%; plant injury at 250 g/ha [8]: 0%; pest or weed control at 15.625 g/ha [9]: 0%; pest or weed control at 62.5 g/ha [9]: 0%; pest or weed control at 250 g/ha [9]: 30%; pest or weed control at 15.625 g/ha [10]: 0%; pest or weed control at 62.5 g/ha [10]: 20%; pest or weed control at 250 g/ha [10]: 30%; pest or weed control at 15.625 g/ha [11]: 0%; pest or weed control at 62.5 g/ha [11]: 0%; pest or weed control at 250 g/ha [11]: 0%; pest or weed control at 15.625 g/ha [12]: 0%; pest or weed control at 62.5 g/ha [12]: 0%; pest or weed control at 250 g/ha [12]: 0%
